Measurements reported in ChEMBL document CHEMBL1201862, “PubChem BioAssay data set” (2004).
Where “and” joins values, the source holds several entries; their conditions need not be identical. Identical values can stand only once.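 48-hour exposure; five concentrations; linearly interpolated endpoints. At the GI50, growth is halved.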 Calls of active or inactive are those of the source. No stated cut-off is given here; in the data, active = GI50 up to about 1.1 µM and inactive = higher.

Assays:
Experiment in all cases: NCI-60 cell line screen, 48 h
MDA-MB-435 = system: MDA-MB-435
Malme-3M = system: Malme-3M
SK-MEL-28 = system: SK-MEL-28
M14 = system: M14
NCI/ADR-RES = system: NCI/ADR-RES
SK-MEL-2 = system: SK-MEL-2
OVCAR-3 = system: OVCAR-3
EKVX = system: EKVX
SN12C = system: SN12C
786-0 = system: 786-0
OVCAR-4 = system: OVCAR-4
HCC 2998 = system: HCC 2998
T47D = system: T47D
OVCAR-5 = system: OVCAR-5
TK-10 = system: TK-10
HOP-92 = system: HOP-92
IGROV-1 = system: IGROV-1
LOX IMVI = system: LOX IMVI
SK-MEL-5 = system: SK-MEL-5
SR = system: SR

CCOc1ccc(N/C(=C(/C(Cl)=C(/Cl)NCCN)[N+](=O)[O-])n2nnc3ccccc32)cc1
GI50 (MDA-MB-435): 44.3 µM (inactive) | GI50 (Malme-3M): 14.5 µM (inactive) | GI50 (SK-MEL-28): 27.9 µM (inactive) | GI50 (M14): 43.9 µM (inactive) | GI50 (NCI/ADR-RES): 49.5 µM (inactive) | GI50 (SK-MEL-2): > 100 µM (inactive) | GI50 (OVCAR-3): 13 µM (inactive) | GI50 (EKVX): 50.2 µM (inactive) | GI50 (SN12C): 35.6 µM (inactive) | GI50 (786-0): 31.8 µM (inactive) | GI50 (OVCAR-4): 30.6 µM (inactive) | GI50 (HCC 2998): > 100 µM (inactive) | GI50 (T47D): 32.3 µM (inactive) | GI50 (OVCAR-5): 67.3 µM (inactive)

CCOC(=O)c1c(OCC)[nH]c(=O)c(C(c2cccs2)c2c(O)c(C(=O)OCC)c(OCC)[nH]c2=O)c1O
GI50 (MDA-MB-435): 14.5 µM (inactive) | GI50 (TK-10): 25.4 µM (inactive) | GI50 (HOP-92): 9.42 µM (inactive) | GI50 (Malme-3M): 8.36 µM (inactive) | GI50 (SK-MEL-28): 13.1 µM (inactive) | GI50 (M14): 16.1 µM (inactive) | GI50 (NCI/ADR-RES): 27.4 µM (inactive) | GI50 (SK-MEL-2): 12.8 µM (inactive) | GI50 (OVCAR-3): 11.6 µM (inactive) | GI50 (EKVX): 11.5 µM (inactive) | GI50 (SN12C): 15.4 µM (inactive) | GI50 (IGROV-1): 13.9 µM (inactive) | GI50 (LOX IMVI): 12.6 µM (inactive) | GI50 (786-0): 12.1 µM (inactive) | GI50 (OVCAR-4): 17.6 µM (inactive) | GI50 (HCC 2998): 13.9 µM (inactive) | GI50 (T47D): 0.0989 µM (active) | GI50 (SK-MEL-5): 12.9 µM (inactive) | GI50 (OVCAR-5): 26.5 µM (inactive)

CNc1nc(N)nc(Nc2ccc(I)cc2)c1N=O
GI50 (MDA-MB-435): > 100 µM (inactive) | GI50 (TK-10): > 100 µM (inactive) | GI50 (Malme-3M): > 100 µM (inactive) | GI50 (SK-MEL-28): > 100 µM (inactive) | GI50 (NCI/ADR-RES): > 100 µM (inactive) | GI50 (SK-MEL-2): > 100 µM (inactive) | GI50 (OVCAR-3): 61 µM (inactive) | GI50 (EKVX): > 100 µM (inactive) | GI50 (SN12C): > 100 µM (inactive) | GI50 (IGROV-1): > 100 µM (inactive) | GI50 (LOX IMVI): > 100 µM (inactive) | GI50 (786-0): > 100 µM (inactive) | GI50 (SR): > 100 µM (inactive) | GI50 (HCC 2998): > 100 µM (inactive) | GI50 (SK-MEL-5): 96.2 µM (inactive) | GI50 (OVCAR-5): > 100 µM (inactive)

CC(=O)OCC1OC(n2c(N)c(C#N)c(C)c(C#N)c2=S)C(OC(C)=O)C(OC(C)=O)C1OC(C)=O (stereo not given)
GI50 (MDA-MB-435): > 100 µM (inactive) | GI50 (TK-10): > 100 µM (inactive) | GI50 (Malme-3M): > 100 µM (inactive) and 78.5 µM (inactive) | GI50 (SK-MEL-28): > 100 µM (inactive) | GI50 (M14): 46.3 µM (inactive) and 80.9 µM (inactive) | GI50 (NCI/ADR-RES): > 100 µM (inactive) | GI50 (SK-MEL-2): > 100 µM (inactive) | GI50 (OVCAR-3): > 100 µM (inactive) | GI50 (EKVX): > 100 µM (inactive) | GI50 (SN12C): > 100 µM (inactive) | GI50 (IGROV-1): > 100 µM (inactive) | GI50 (LOX IMVI): > 100 µM (inactive) | GI50 (786-0): > 100 µM (inactive) | GI50 (OVCAR-4): > 100 µM (inactive) | GI50 (HCC 2998): > 100 µM (inactive) | GI50 (T47D): > 100 µM (inactive) | GI50 (SK-MEL-5): > 100 µM (inactive) | GI50 (OVCAR-5): > 100 µM (inactive)

CC(C)CCNC(=O)c1ccc(CNC(=O)/C=C/c2csc(-c3ccccc3)n2)cc1
GI50 (MDA-MB-435): > 100 µM (inactive) | GI50 (TK-10): 53.2 µM (inactive) | GI50 (HOP-92): 27.7 µM (inactive) | GI50 (Malme-3M): 29.9 µM (inactive) | GI50 (SK-MEL-28): 57.7 µM (inactive) | GI50 (M14): > 100 µM (inactive) | GI50 (NCI/ADR-RES): 36.9 µM (inactive) | GI50 (SK-MEL-2): > 100 µM (inactive) | GI50 (OVCAR-3): > 100 µM (inactive) | GI50 (EKVX): > 100 µM (inactive) | GI50 (SN12C): 64.3 µM (inactive) | GI50 (IGROV-1): 34.2 µM (inactive) | GI50 (LOX IMVI): > 100 µM (inactive) | GI50 (786-0): 32.7 µM (inactive) | GI50 (OVCAR-4): 14.5 µM (inactive) | GI50 (HCC 2998): > 100 µM (inactive) | GI50 (T47D): 33.2 µM (inactive) | GI50 (SK-MEL-5): 29.5 µM (inactive) | GI50 (OVCAR-5): > 100 µM (inactive)

Cc1nc(C(N)=S)sc1/C(CC(=O)C(=O)Nc1cccc2ccc(O)cc12)=N\NC(=O)c1ccncc1
GI50 (MDA-MB-435): > 100 µM (inactive) | GI50 (TK-10): 77.8 µM (inactive) | GI50 (HOP-92): 31.6 µM (inactive) | GI50 (SK-MEL-28): 74.8 µM (inactive) | GI50 (M14): > 100 µM (inactive) | GI50 (NCI/ADR-RES): > 100 µM (inactive) | GI50 (SK-MEL-2): > 100 µM (inactive) | GI50 (OVCAR-3): 34 µM (inactive) | GI50 (EKVX): > 100 µM (inactive) | GI50 (SN12C): 35.1 µM (inactive) | GI50 (IGROV-1): 53.7 µM (inactive) | GI50 (LOX IMVI): 42.2 µM (inactive) | GI50 (786-0): 40.3 µM (inactive) | GI50 (OVCAR-4): 49.9 µM (inactive) | GI50 (HCC 2998): 59.8 µM (inactive) | GI50 (SK-MEL-5): 33.2 µM (inactive) | GI50 (OVCAR-5): > 100 µM (inactive)

COc1cc2c(cc1OC)[C@H]1CN3CCC[C@H]3C=C1c1ccc(OC)c(O)c1-2
GI50 (MDA-MB-435): 0.00264 µM (active) | GI50 (TK-10): 0.000998 µM (active) | GI50 (HOP-92): < 0.0001 µM (active) | GI50 (Malme-3M): 0.000608 µM (active) | GI50 (SK-MEL-28): 0.0006 µM (active) | GI50 (M14): 0.00048 µM (active) | GI50 (SK-MEL-2): 0.000505 µM (active) | GI50 (OVCAR-3): < 0.0001 µM (active) | GI50 (EKVX): 0.000883 µM (active) | GI50 (SN12C): 0.000531 µM (active) | GI50 (IGROV-1): 0.000661 µM (active) | GI50 (LOX IMVI): 0.000329 µM (active) | GI50 (786-0): 0.000728 µM (active) | GI50 (SR): 0.00059 µM (active) | GI50 (OVCAR-4): 0.00031 µM (active) | GI50 (HCC 2998): 0.0029 µM (active) | GI50 (T47D): 0.00337 µM (active) | GI50 (SK-MEL-5): 0.000539 µM (active) | GI50 (OVCAR-5): 0.000653 µM (active)

O=C(Cn1cc(-c2ccccc2)nn1)NC1CCCCC1
GI50 (MDA-MB-435): > 100 µM (inactive) | GI50 (TK-10): > 100 µM (inactive) | GI50 (HOP-92): > 100 µM (inactive) | GI50 (Malme-3M): > 100 µM (inactive) | GI50 (SK-MEL-28): > 100 µM (inactive) | GI50 (M14): > 100 µM (inactive) | GI50 (NCI/ADR-RES): > 100 µM (inactive) | GI50 (SK-MEL-2): > 100 µM (inactive) | GI50 (EKVX): > 100 µM (inactive) | GI50 (SN12C): > 100 µM (inactive) | GI50 (IGROV-1): > 100 µM (inactive) | GI50 (LOX IMVI): > 100 µM (inactive) | GI50 (786-0): > 100 µM (inactive) | GI50 (SR): > 100 µM (inactive) | GI50 (OVCAR-4): > 100 µM (inactive) | GI50 (HCC 2998): 54.5 µM (inactive) | GI50 (SK-MEL-5): > 100 µM (inactive) | GI50 (OVCAR-5): > 100 µM (inactive)
